The subject of experiment [1] is MDA-MB-231. The experiment is described as follows: Effective concentration of compound with DFMO tested in vitro for ability to inhibit polyamine transport and growth of MDA-MB-231 breast carcinoma cell line. It counts as functional, cell-based. Particulars: Homo sapiens.
Experiment [2] has as its system MDA-MB-231. Put plainly: Effective concentration of compound without DFMO tested in vitro for ability to inhibit polyamine transport and growth of MDA-MB-231 breast carcinoma cell line; Cytotoxic. To be noted: Homo sapiens. The experiment is classed as functional, cell-based.
Experiment [3] is described as follows: Inhibition of SPD uptake by polyamine transporter of MDA-MB-231 breast carcinoma cells. It counts as cell-based.
Experiment [4] relates to MDA-MB-231. Put plainly: Michaelis-Menten constant of compound was determined at MDA-MB-231 cell line mediated by polyamine transporter. It counts as cell-based. To be noted: Homo sapiens.
The subject of experiment [5] is MDA-MB-231. The experiment is described as follows: Effective concentration of compound with DFMO tested in vitro for ability to inhibit polyamine transport and growth of MDA-MB-231 breast carcinoma cell line; Cytotoxic. Particulars: Homo sapiens. It counts as functional, cell-based.

As a reminder, the EC50 is the concentration that produces a half-maximal response. One may read the Ki as a dissociation constant, usually derived from enzyme kinetics or from competition with a known ligand. Read a high Ki as weaker binding. Turning to `NCCCNCCCCNCCCNC(=O)CCCCCCCCCCC(=O)NCCCNCCCCNCCCN`, the values for the EC50 in the experiment with MDA-MB-231 [1] and in the experiment on MDA-MB-231 [2] were 8 µM and 53 µM, respectively. The same molecule displayed a Ki in experiment [3] of 0.03 µM.
On to `NCCCNCCCCNCCCNC(=O)CCCCCCCC(=O)NCCCNCCCCNCCCN`, for which the EC50 in the experiment on MDA-MB-231 [1] worked out at 3 µM. Moreover, the affinity in experiment [3] corresponds to a Ki of 0.07 µM.
In the same order, the values of `NCCCNCCCCNCCCNC(=O)CCCCCCC(=O)NCCCNCCCCNCCCN` are 3.7 µM and 0.06 µM.
For orientation: Km means the concentration of substrate that gives half-maximal velocity. For `NCCCCN`, the Km in the experiment on MDA-MB-231 [4] turned out to be 1.28 µM.
As for `NCCCNCCCCNCCCN`, the Km with MDA-MB-231 [4] was 2 µM.
With `NCCCNCCCCNCCCNC(=O)CCC(=O)NCCCNCCCCNCCCN`, the EC50 in the experiment with MDA-MB-231 [1] came out at 2 µM. In addition, the affinity in experiment [3] corresponds to a Ki of 0.03 µM.
On to `NCCCNCCCCNCCCNC(=O)CCCC(=O)NCCCNCCCCNCCCN`, for which the EC50 in the experiment on MDA-MB-231 [1] amounted to 1.6 µM. This molecule showed a Ki in experiment [3] of 0.06 µM.
`NCCCNCCCCNCCCNC(=O)CCCCCCCCC(=O)NCCCNCCCCNCCCN`: the EC50 in the experiment with MDA-MB-231 [1] was 9 µM; in the experiment with MDA-MB-231 [2], 240 µM. For the same molecule, the Ki in experiment [3] is 0.08 µM.
In the experiment on MDA-MB-231 [5], `CCCCCCC(=O)NCCCNCCCCNCCCN` yielded an EC50 of 63 µM. The same molecule returned an inhibitory constant (Ki) in experiment [3] of 0.28 µM.
Molecule `NCCCNCCCCNCCCNC(=O)CCCCCC(=O)NCCCNCCCCNCCCN` had an EC50 in the experiment with MDA-MB-231 [1] of 6 µM. The Ki in experiment [3] was found to be 0.04 µM.
In turn, `NCCCNCCCCNCCCNC(=O)CCCCC(=O)NCCCNCCCCNCCCN` displayed an EC50 in the experiment on MDA-MB-231 [1] of 2.2 µM. For the same molecule, in experiment [3], the inhibition constant Ki worked out at 0.07 µM.
In the experiment on MDA-MB-231 [1], `NCCCNCCCCNCCCNS(=O)(=O)c1ccc2cc(S(=O)(=O)NCCCNCCCCNCCCN)ccc2c1` gave an EC50 of 230 µM. The molecule also registered an inhibition constant (Ki) in experiment [3] of 0.06 µM.
Take `NCCCNCCCCNCCCNC(=O)CC12CC3CC(C1)CC(CC(=O)NCCCNCCCCNCCCN)(C3)C2`: the EC50 in the experiment on MDA-MB-231 [1] is above 300 µM. Besides, the Ki in experiment [3] stood at 0.06 µM.
Consider `NCCCCNCCCN`, for which the Km in the experiment on MDA-MB-231 [4] was 0.11 µM.
In the case of `CC(=O)NCCCNCCCCNCCCN`, the EC50 in the experiment on MDA-MB-231 [1] was above 1000 µM. In addition, the affinity in experiment [3] corresponds to a Ki of 0.18 µM.

These data come from ChEMBL document CHEMBL1136018, “Synthesis of bis-spermine dimers that are potent polyamine transport inhibitors” (Bioorg Med Chem Lett, 2002).
